Consider five compounds from US4107304A, “Oxo-imidazolidine substituted cephalosporins and antibacterial compositions and methods of combatting bacteria employing them” (Bayer Aktiengesellschaft, priority 1974, dated 1978).

One test has as its system Escherichia coli. Nature of the test: Antibiotic activity of electropherogram spot. As to conditions: against Escherichia coli. Type of test: cell-based.
The next test has as its system Pseudomonas aeruginosa. The test can be described thus: Antibiotic activity of electropherogram spot. The settings on record: against Pseudomonas aeruginosa. Type of test: cell-based.
For the next test, the system named is B. subtilis. The test can be described thus: Antibiotic activity of electropherogram spot. As to conditions: against B. subtilis. It counts as cell-based.
Test [1] in a line: Antibiotic activity of electropherogram spot (organism not stated). It counts as cell-based.
Test [2] deals with pasteurella pseudotuberculosis. Type of test: cell-based. As to conditions: 100 μg/ml, 24 hours.
Test [3] relates to Corynebacterium pyogenes M. Nature of the test: In vitro turbidity test, 24 h in Muller-Hinton broth. Type of test: cell-based. As to conditions: 100 μg/ml.
The next test relates to Providencia. The description is as above. Type of test: cell-based. The settings on record: 100 μg/ml.
A further test has as its system Klebsiella pneumoniae. The test is described as above. It counts as cell-based. The settings on record: 100 μg/ml, 1 × 10^5 to 2 × 10^5 bacteria per milliliter, freedom from turbidity = active.
Test [4] has as its system Streptococcus pyogenes W. The test is described as above. Type of test: cell-based. As to conditions: 100 μg/ml.
The test system of test [5] is Corynebacterium diphtheria gravis. The description is as above. It counts as cell-based. As to conditions: 100 μg/ml.
A further test concerns Shigella sp. The test is described as above. It counts as cell-based. The settings on record: 100 μg/ml.
The next test deals with Haemophilis influenzae. The description is as above. It counts as cell-based. The settings on record: 100 μg/ml.
Test [6] concerns Enterobacter aerogenes sp. The test is described as above. As to conditions: 100 μg/ml. Type of test: cell-based.
The next test has as its system Lactobacillus sp. The test is described as above. It counts as cell-based. As to conditions: 100 μg/ml.
Test [7] deals with Proteus, indole negative and indole positive sp. The test is described as above. It counts as cell-based. The settings on record: 100 μg/ml.
In test [8] the test system is Bordetella bronchiseptica. The test is described as above. Type of test: cell-based. The settings on record: 100 μg/ml.
For test [9], the system named is Staphylococcus aureus 133. The description is as above. The settings on record: 100 μg/ml. Type of test: cell-based.
The next test has as its system Escherichia coli BE. The description is as above. It counts as cell-based. As to conditions: 100 μg/ml.
The test system of test [10] is Diplococcus pneumoniae sp. The test is described as above. It counts as cell-based. The settings on record: 100 μg/ml.
In a further test the test system is Serratia marcescens. Described as above. It counts as cell-based. The settings on record: 100 μg/ml.
The subject of another test is Salmonella sp. The test is described as above. It counts as cell-based. As to conditions: 100 μg/ml.
A further test deals with Enterococcus sp. Described as above. It counts as cell-based. As to conditions: 100 μg/ml.
The subject of test [11] is Neisseria catarrhalis sp. Described as above. Type of test: cell-based. The settings on record: 100 μg/ml.
A further test concerns Brucella sp. It counts as cell-based. As to conditions: 100 μg/ml, 24 hours.
The next test deals with Escherichia coli C 165. The test can be described thus: Animal experiments with white mice, intraperitoneal infection, survival after 24 hours. It counts as in vivo, white mice of strain CF1. The settings on record: C165, sc, subcutaneous, 1 administration 30 minutes after infection, dose at which 50% of infected animals survive, read-out: ED 50 after 24 hours. On the procedure:
(§1) The white mice of strain CF1 were infected intraperitoneally with the species of bacteria indicated. |Animal Experiments With White Mice |Determination of the ED 50 after 24 hours | Dose in mg of the cephalosporin from | Example 6 per kg of body weight |Germ (administered subcutaneously) |Therapy: 1 administration 30 minutes after infection. | The ED 50 is the dose at which 50% of the infected |animals still survive after 24 hours.

Test [12] concerns Staphylococcus aureus 133. Described as above. Type of test: in vivo, white mice of strain CF1. The settings on record: Staphylococcus aureus, 133, sc, subcutaneous, 1 administration 30 minutes after infection, dose at which 50% of infected animals survive, read-out: ED 50 after 24 hours. On the procedure: as §1

`CC(=O)OCC1=C(C(=O)O)N2C(=O)[C@@H](NC(=O)[C@H](NC(=O)N3CCNC3=O)c3ccccc3)[C@H]2SC1` [Example 1, sodium 7-{D-α-[(2-oxo-imidazolidin-1-yl)carbonylamino]-phenylacetamido}-3-acetoxymethyl-ceph-3-em-4-carboxylate]: the “antibiotic activity of the electropherogram spot” value (“antibiotic activity” below) in the test with Escherichia coli, in the test on Pseudomonas aeruginosa and with B. subtilis was “only one spot with antibiotic activity” throughout.

`CC1=C(C(=O)O)N2C(=O)[C@@H](NC(=O)[C@H](NC(=O)N3CCNC3=O)c3ccccc3)[C@H]2SC1` [Example 2, 7-{D-α-[(2-Oxo-imidazolidin-1-yl)-carbonylamino]-phenylacetamido}-3-methyl-ceph-3-em-4-carboxylic acid]: in test [1], the “antibiotic activity” value was “only one spot with antibiotic activity”.

In the case of `CC(=O)OCC1=C(C(=O)O)N2C(=O)[C@@H](NC(=O)[C@H](NC(=O)N3CCN(C)C3=O)c3ccccc3)[C@H]2SC1` [Example 3, sodium 7-{D-α-[(3-methyl-2-oxo-imidazolidin-1-yl)-carbonylamino]-phenylacetamido}-3-acetoxymethyl-ceph-3-em-4-carboxylate], the degree of turbidity entry (in test [2]; in [3]; with Providencia; in the test on Klebsiella pneumoniae; in [4]; in test [5]) was “free from turbidity” each time. The degree of turbidity result (with Shigella sp.; in the test with Haemophilis influenzae; in test [6]; in the test with Lactobacillus sp.; in test [7]; in test [8]) was “free from turbidity” each time. Further, the degree of turbidity result (in [9]; in the test on Escherichia coli BE; in test [10]; in the test with Serratia marcescens; with Salmonella sp.; in the test on Enterococcus sp.) was “free from turbidity” each time. Besides, the degree of turbidity result (in test [11]; in the test on Brucella sp.) was “free from turbidity” each time.

As for `CC(=O)OCC1=C(C(=O)O)N2C(=O)[C@@H](NC(=O)[C@H](NC(=O)N3CCN(S(C)(=O)=O)C3=O)c3ccccc3)[C@H]2SC1` [Example 6, Sodium 7-{D-α-[(2-oxo-3-mesyl-imidazolidin-1-yl)-carbonylamino]-phenylacetamido}-3-acetoxymethyl-ceph-3-em-4-carboxylate], the degree of turbidity entry (in test [2]; in [3]; in the test on Providencia; in the test with Klebsiella pneumoniae; in test [4]; in test [5]) was “free from turbidity” each time. Further, the degree of turbidity result (in the test on Shigella sp.; in the test with Haemophilis influenzae; in test [6]; in the test on Lactobacillus sp.; in test [7]; in test [8]) was “free from turbidity” throughout. Further, the degree of turbidity entry (in test [9]; in the test with Escherichia coli BE; in [10]; in the test with Serratia marcescens; in the test with Salmonella sp.; in the test with Enterococcus sp.) was “free from turbidity” each time. Moreover, the degree of turbidity entry (in test [11]; with Brucella sp.) was “free from turbidity” throughout. The ED50 in the test on Escherichia coli C 165 was 200 mg/kg; in [12], 10 mg/kg. Moreover, the “antibiotic activity” value in test [1] is listed as “one spot with antibiotic activity”.

As to `CC(=O)OCC1=C(C(=O)O)N2C(=O)[C@@H](NC(=O)[C@H](NC(=O)N3CCN(S(=O)(=O)c4ccccc4)C3=O)c3ccccc3)[C@H]2SC1` [Example 7, Sodium 7-{D-α-[(2-oxo-3-phenylsulphonyl-imidazolidin-1-yl)-carbonylamino]-phenylacetamido}-3-acetoxymethyl-ceph-3-em-4-carboxylate], the degree of turbidity result (in test [2]; in test [3]; with Providencia; with Klebsiella pneumoniae; in [4]; in test [5]) was “free from turbidity” each time. The degree of turbidity entry (in the test on Shigella sp.; in the test with Haemophilis influenzae; in [6]; in the test on Lactobacillus sp.; in test [7]; in [8]) was “free from turbidity” in each case. Further, the degree of turbidity entry (in [9]; in the test with Escherichia coli BE; in [10]; in the test with Serratia marcescens; in the test with Salmonella sp.; with Enterococcus sp.) was “free from turbidity” in each case. Also, the degree of turbidity result (in test [11]; in the test on Brucella sp.) was “free from turbidity” throughout.
